According to ChEMBL document CHEMBL1157213, “2-Amino-5-thiazolyl motif: a novel scaffold for designing anti-inflammatory agents of diverse structures” (Eur J Med Chem, 2008):

Key:
[1] = tested on: Rattus norvegicus; assay: Antiinflammatory activity against formalin-induced chronic paw edema rat inflammatory model assessed as reduction of paw volume at 100 mg/kg, po after 3 days relative to control; assay type: functional; design: scale not given: the % may be the effect or the level left
[2] = tested on: Rattus norvegicus; assay: Antiinflammatory activity against formalin-induced chronic paw edema rat inflammatory model assessed as reduction of paw volume at 100 mg/kg, po after 4 days relative to control; assay type: functional; design: scale not given: the % may be the effect or the level left
[3] = tested on: Rattus norvegicus; assay: Antiinflammatory activity against carrageenan-induced acute paw edema Sprague-Dawley rat inflammatory model assessed as reduction of paw volume at 100 mg/kg, po after 3 hrs relative to control; assay type: functional; design: scale not given: the % may be the effect or the level left
[4] = target: T1, Prostaglandin G/H synthase 2 (Homo sapiens) (UniProt P35354); assay: Inhibition of COX2 at 10 uM
T1 sequence (whole entry): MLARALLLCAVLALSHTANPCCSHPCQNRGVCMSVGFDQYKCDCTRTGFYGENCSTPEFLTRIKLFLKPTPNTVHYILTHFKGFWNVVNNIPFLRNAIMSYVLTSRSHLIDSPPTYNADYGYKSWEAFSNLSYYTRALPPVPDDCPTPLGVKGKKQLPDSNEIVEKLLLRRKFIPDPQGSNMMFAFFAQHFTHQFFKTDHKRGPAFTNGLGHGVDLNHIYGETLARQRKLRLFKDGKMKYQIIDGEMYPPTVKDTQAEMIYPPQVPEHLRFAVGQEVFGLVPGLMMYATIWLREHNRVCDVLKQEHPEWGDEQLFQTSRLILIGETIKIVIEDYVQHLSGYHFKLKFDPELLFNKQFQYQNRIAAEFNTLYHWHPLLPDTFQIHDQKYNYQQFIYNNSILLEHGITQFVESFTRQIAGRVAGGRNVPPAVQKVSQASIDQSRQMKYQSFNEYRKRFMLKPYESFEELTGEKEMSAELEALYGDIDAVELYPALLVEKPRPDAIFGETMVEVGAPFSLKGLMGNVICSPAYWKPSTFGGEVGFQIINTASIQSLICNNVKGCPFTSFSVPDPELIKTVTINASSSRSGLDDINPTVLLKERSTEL

[5] = tested on: Rattus norvegicus; assay: Toxic gastric-ulcerogenic effect in Sprague-Dawley rat assessed as lesion score at 100 mg/kg, po after 7 days; assay type: toxicity, organism-based; design: dose 100 mg/kg, route oral; details: in vivo, 168 h
[6] = tested on: Rattus norvegicus; assay: Antiinflammatory activity against formalin-induced chronic paw edema rat inflammatory model assessed as reduction of paw volume at 100 mg/kg, po after 1 day relative to control; assay type: functional; design: scale not given: the % may be the effect or the level left
[7] = target: Prostaglandin G/H synthase 1 (Homo sapiens) (UniProt P23219); assay: Inhibition of COX1 at 10 uM
Prostaglandin G/H synthase 1 (Homo sapiens), sequence (P23219 whole entry): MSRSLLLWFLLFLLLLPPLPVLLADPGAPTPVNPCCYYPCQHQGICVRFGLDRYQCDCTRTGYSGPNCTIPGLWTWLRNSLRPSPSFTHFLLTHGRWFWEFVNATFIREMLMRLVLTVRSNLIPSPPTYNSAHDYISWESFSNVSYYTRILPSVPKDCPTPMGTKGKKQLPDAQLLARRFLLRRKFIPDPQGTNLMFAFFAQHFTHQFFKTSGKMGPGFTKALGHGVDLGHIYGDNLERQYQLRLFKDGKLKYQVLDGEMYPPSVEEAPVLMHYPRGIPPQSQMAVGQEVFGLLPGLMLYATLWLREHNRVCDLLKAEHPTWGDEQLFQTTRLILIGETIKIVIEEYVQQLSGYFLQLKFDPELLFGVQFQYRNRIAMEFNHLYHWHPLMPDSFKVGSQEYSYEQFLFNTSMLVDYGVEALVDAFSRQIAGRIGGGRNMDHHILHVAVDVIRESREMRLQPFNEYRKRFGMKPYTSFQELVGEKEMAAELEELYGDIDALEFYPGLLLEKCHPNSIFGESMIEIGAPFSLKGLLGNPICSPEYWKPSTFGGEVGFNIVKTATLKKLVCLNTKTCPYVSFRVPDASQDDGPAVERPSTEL

[8] = tested on: Rattus norvegicus; assay: Antiinflammatory activity against formalin-induced chronic paw edema rat inflammatory model assessed as reduction of paw volume at 100 mg/kg, po after 2 days relative to control; assay type: functional; design: scale not given: the % may be the effect or the level left
[9] = tested on: Rattus norvegicus; assay: Antiinflammatory activity against formalin-induced chronic paw edema rat inflammatory model assessed as reduction of paw volume at 100 mg/kg, po after 5 days relative to control; assay type: functional; design: scale not given: the % may be the effect or the level left
[10] = tested on: Rattus norvegicus; assay: Antiinflammatory activity against formalin-induced chronic paw edema rat inflammatory model assessed as reduction of paw volume at 50 mg/kg, po after 1 day relative to control; assay type: functional; design: scale not given: the % may be the effect or the level left
[11] = tested on: Rattus norvegicus; assay: Antiinflammatory activity against formalin-induced chronic paw edema rat inflammatory model assessed as reduction of paw volume at 50 mg/kg, po after 3 days relative to control; assay type: functional; design: scale not given: the % may be the effect or the level left
[12] = tested on: Rattus norvegicus; assay: Antiinflammatory activity against carrageenan-induced acute paw edema Sprague-Dawley rat inflammatory model assessed as reduction of paw volume at 50 mg/kg, po after 3 hrs relative to control; assay type: functional; design: scale not given: the % may be the effect or the level left
[13] = tested on: Rattus norvegicus; assay: Antiinflammatory activity against formalin-induced chronic paw edema rat inflammatory model assessed as reduction of paw volume at 50 mg/kg, po after 5 days relative to control; assay type: functional; design: scale not given: the % may be the effect or the level left
[14] = tested on: Rattus norvegicus; assay: Antiinflammatory activity against formalin-induced chronic paw edema rat inflammatory model assessed as reduction of paw volume at 50 mg/kg, po after 2 days relative to control; assay type: functional; design: scale not given: the % may be the effect or the level left
[15] = tested on: Rattus norvegicus; assay: Antiinflammatory activity against formalin-induced chronic paw edema rat inflammatory model assessed as reduction of paw volume at 50 mg/kg, po after 4 days relative to control; assay type: functional; design: scale not given: the % may be the effect or the level left
[16] = tested on: Rattus norvegicus; assay: Antiinflammatory activity against carrageenan-induced acute paw edema Sprague-Dawley rat inflammatory model assessed as reduction of paw volume at 5 mg/kg, po after 3 hrs relative to control; assay type: functional; design: scale not given: the % may be the effect or the level left
[17] = tested on: Rattus norvegicus; assay: Antiinflammatory activity against formalin-induced chronic paw edema rat inflammatory model assessed as reduction of paw volume at 5 mg/kg, po after 4 days relative to control; assay type: functional; design: scale not given: the % may be the effect or the level left
[18] = tested on: Rattus norvegicus; assay: Antiinflammatory activity against formalin-induced chronic paw edema rat inflammatory model assessed as reduction of paw volume at 5 mg/kg, po after 3 days relative to control; assay type: functional; design: scale not given: the % may be the effect or the level left
[19] = tested on: Rattus norvegicus; assay: Antiinflammatory activity against formalin-induced chronic paw edema rat inflammatory model assessed as reduction of paw volume at 5 mg/kg, po after 2 days relative to control; assay type: functional; design: scale not given: the % may be the effect or the level left
[20] = tested on: Rattus norvegicus; assay: Antiinflammatory activity against formalin-induced chronic paw edema rat inflammatory model assessed as reduction of paw volume at 5 mg/kg, po after 1 day relative to control; assay type: functional; design: scale not given: the % may be the effect or the level left
[21] = tested on: Rattus norvegicus; assay: Antiinflammatory activity against formalin-induced chronic paw edema rat inflammatory model assessed as reduction of paw volume at 5 mg/kg, po after 5 days relative to control; assay type: functional; design: scale not given: the % may be the effect or the level left

Row | SMILES | inhibition [4] [%] | inhibition [7] [%] | Activity [1] [%] | Activity [2] [%] | Activity [3] [%] | Activity [5] [mm] | Activity [6] [%] | Activity [8] [%] | Activity [9] [%] | other results
1 | CS(=O)(=O)c1ccc(C2=C(c3ccccc3)C(=O)OC2)cc1 [ROFECOXIB] |  |  |  |  |  |  |  |  |  | Activity [10]: 39%; Activity [11]: 35%; Activity [12]: 40%; Activity [13]: 30%; Activity [14]: 32%; Activity [15]: 29%
2 | CC(C)Cc1ccc(C(C)C(=O)O)cc1 (stereo not given) [IBUPROFEN] |  |  |  |  |  | 12 |  |  |  | 
3 | C[C@@H]1C[C@H]2[C@@H]3CCC4=CC(=O)C=C[C@]4(C)[C@@]3(F)[C@@H](O)C[C@]2(C)[C@@]1(O)C(=O)CO [DEXAMETHASONE] |  |  |  |  |  |  |  |  |  | Activity [16]: 85%; Activity [17]: 89%; Activity [18]: 96%; Activity [19]: 92%; Activity [20]: 70%; Activity [21]: 94%
4 | CC(=O)Oc1ccccc1C(=O)O [ASPIRIN] |  |  |  |  |  | 5 |  |  |  | 
5 | COC(=O)Nc1nc(N(C)C)c(C(=O)c2ccc(S(C)(=O)=O)cc2)s1 | 15.2 | 4.13 | 26 | 43 | 30 |  | 29 | 40 | 0 | 

More lines, main results first:

Row | inhibition [4] [%] | inhibition [7] [%] | SMILES | Activity [1] [%] | Activity [2] [%] | Activity [3] [%] | Activity [5] [mm] | Activity [6] [%] | Activity [8] [%] | Activity [9] [%] | other results
6 | 19.3 | 6.31 | O=C(Nc1nc(-c2ccccc2)c(C(=O)C(=O)c2sc(NC(=O)c3ccccc3)nc2-c2ccccc2)s1)c1ccccc1 | 84 | 38 | 73 | 12 | 88 | 92 | 41 | 
7 | 10.4 | -5.91 | CS(=O)(=O)c1ccc(C(=O)c2sc(N3CCOCC3)nc2-c2ccccc2)cc1 | 42 | 38 | 63 |  | 88 | 44 | 27 | 
8 | 8.91 | -3.61 | CCOC(=O)Nc1nc(C)c(/C(=N\O)c2ccc(S(C)(=O)=O)cc2)s1 | 72 | 47 | 69 |  | 29 | 78 | 5 | 
9 | 19.5 | -6.25 | CNc1nc(N(C)C)c(C(=O)/C(=N/OC)C(=O)OC)s1 | 95 | 72 | 83 |  | 96 | 90 | 66 | 
